Measured values: US20060074255A1, “3-Methyl-20-epi-vitamin D derivatives” (priority 2000, published 2006)

What follows are molecules tested against T1, bovine thymus vitamin D receptor (Bos taurus, UniProt Q28037) (assay: Assay for Binding to Bovine Thymus Vitamin D Receptor (VDR)). Details: relative value with 1α,25-dihydroxyvitamin D3 taken as 100; X=(y/x)×100 from concentrations inhibiting 50% of [3H]-1α,25-dihydroxyvitamin D3 binding to VDR.
T1 construct: Bovine thymus 1α,25-dihydroxyvitamin D3 receptor was purchased from Yamasa Biochemcal; purchased Yamasa Biochemcal (Choshi, Chiba, Japan) lot; 112631; host or cells: bovine thymus (tissue preparation)
T1 sequence (Q28037 1-426): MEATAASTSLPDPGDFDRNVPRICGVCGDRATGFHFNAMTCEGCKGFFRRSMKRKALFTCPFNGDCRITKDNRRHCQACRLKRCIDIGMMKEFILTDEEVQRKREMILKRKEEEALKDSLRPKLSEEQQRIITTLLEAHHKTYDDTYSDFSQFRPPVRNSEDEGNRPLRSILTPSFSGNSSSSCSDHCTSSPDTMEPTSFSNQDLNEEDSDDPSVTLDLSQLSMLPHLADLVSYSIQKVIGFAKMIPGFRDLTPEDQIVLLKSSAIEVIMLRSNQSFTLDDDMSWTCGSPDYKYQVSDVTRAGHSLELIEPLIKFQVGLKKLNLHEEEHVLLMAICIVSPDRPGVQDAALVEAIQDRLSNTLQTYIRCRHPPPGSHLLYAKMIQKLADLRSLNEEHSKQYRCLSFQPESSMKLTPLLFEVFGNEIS
Experimental: Assay for Binding to Bovine Thymus Vitamin D Receptor (VDR)
Compounds 14, 16, 19 and 21 synthesized in the above Examples 1 to 4 were tested for their binding properties to bovine thymus vitamin D receptor.
Ethanol solutions of 1α,25-dihydroxyvitamin D3 (the standard substance) and Compounds 14, 16, 19 and 21 were prepared at various concentrations. Bovine thymus 1α,25-dihydroxyvitamin D3 receptor was purchased from Yamasa Biochemcal (Choshi, Chiba, Japan) (lot. 112631) and, just before use, one ampule (approximately 25 mg) of the receptor was dissolved in 55 mL of 0.05 M phosphate buffer (pH 7.4) containing 0.3M KCl and 5 mM dithiothreitol.
Each of the ethanol solutions (50 μl) of the test compounds and 1α,25-dihydroxyvitamin D3 was put into a respective tube with 500 μl (0.23 mg protein) of the receptor solution, pre-incubated at 25° C. for 1 hour, and [^3H]-1α,25-dihydroxyvitamin D3 was added at the final concentration of 0.1 nM, followed by incubation overnight at 4° C. Each of the reaction mixtures was mixed with DCC (dextran coated charcoal), left for 30 minutes at 4° C. and centrifuged at 3000 rpm for ten minutes to separate the bound and free forms of [^3H]-1α,25-dihydroxyvitamin D3. Each of the resultant supernatants (500 μl) was mixed with ACS-II (9.5 ml) (AMERSHAM, England) for radioactivity measurement.
The binding properties of the test compounds expressed in relative value with that of 1α,25-dihydroxyvitamin D3 taken as 100 were shown in Table below. The values were calculated according to the following equation. X=(y/x)×100 • X: relative VDR binding property of a test compound • y: concentration of 1α,25-dihydroxyvitamin D3 that inhibits 50% of the binding of [^3H]-1α,25-dihydroxyvitamin D3 and VDR
x: concentration of the test compound that inhibits 50% of the binding of [^3H]-1α,25-dihydroxyvitamin D3 and VDR
For `C=C1/C(=C\C=C2/CCC[C@@]3(C)C2CCC3[C@@H](C)CCCC(C)(C)O)C[C@@](C)(O)C[C@H]1O` (stereo partly drawn) [Compound 14, (5Z,7E)-(1R,3R,20S)-3-methyl-9,10-seco-5,7,10(19)-cholestatriene-1,3,25-triol], the VDR binding properties was 0.035. `C=C1/C(=C\C=C2/CCC[C@@]3(C)C2CCC3[C@@H](C)CCCC(C)(C)O)C[C@@](C)(O)C[C@@H]1O` (stereo partly drawn) [Compound 16, (5Z,7E)-(1S,3R,20S)-3-methyl-9,10-seco-5,7,10(19)-cholestatriene-1,3,25-triol] gave a VDR binding properties of 70. With `C=C1/C(=C\C=C2/CCC[C@@]3(C)C2CCC3[C@@H](C)CCCC(C)(C)O)C[C@](C)(O)C[C@@H]1O` (stereo partly drawn) [Compound 19, (5Z,7E)-(lS,3S,20S)-3-methyl-9,10-seco-5,7,10(19)-cholestatriene-1,3,25-triol] the VDR binding properties was 0.24. For `C=C1/C(=C\C=C2/CCC[C@@]3(C)C2CCC3[C@@H](C)CCCC(C)(C)O)C[C@](C)(O)C[C@H]1O` (stereo partly drawn) [Compound 21, (5Z,7E)-(1R,3S,20S)-3-Methyl-9,10-seco-5,7,10(19)-cholestatriene-1,3,25-triol], the VDR binding properties was less than 0.01.
